# Source: patent publication US20050009903A1, “CB2-selective cannabinoid analogues” (priority 2003, published 2005)
# “And” between values parts separate entries of the source, which are not always exact repeats. Equal entries are not always repeated. Where two headings read alike, the source gives them in different places.
# What was measured:
# CB2 receptor [1] = target: T1, CB2 receptor (Homo sapiens, UniProt P34972); assay: [35S]GTPγS binding in human CB2 receptor-expressing CHO cell membranes; assay type: biochemical; parameters: expressed in transfected cells; settings: for Emax (% CP-55940): per cent relative to 3 μM CP-55,940; for efficacy in the [35S]GTPγS assay relative to CP-55,940: in words
# T1 sequence (P34972 whole entry): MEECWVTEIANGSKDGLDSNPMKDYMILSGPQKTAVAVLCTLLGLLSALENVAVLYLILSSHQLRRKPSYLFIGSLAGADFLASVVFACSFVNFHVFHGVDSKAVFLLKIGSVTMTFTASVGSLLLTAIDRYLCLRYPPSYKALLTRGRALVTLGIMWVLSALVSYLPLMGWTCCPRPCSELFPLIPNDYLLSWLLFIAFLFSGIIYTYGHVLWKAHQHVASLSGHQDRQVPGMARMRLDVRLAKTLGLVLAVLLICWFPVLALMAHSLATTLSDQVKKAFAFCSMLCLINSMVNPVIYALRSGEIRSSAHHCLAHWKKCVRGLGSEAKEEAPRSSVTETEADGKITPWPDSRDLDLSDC
# CB1 receptor [2] = target: T2, CB1 receptor (Rattus norvegicus, UniProt P20272); settings: cited from earlier work
# T2 construct: from tissue; host or cells: rat whole brain, P2 membranes
# T2 sequence (P20272 whole entry): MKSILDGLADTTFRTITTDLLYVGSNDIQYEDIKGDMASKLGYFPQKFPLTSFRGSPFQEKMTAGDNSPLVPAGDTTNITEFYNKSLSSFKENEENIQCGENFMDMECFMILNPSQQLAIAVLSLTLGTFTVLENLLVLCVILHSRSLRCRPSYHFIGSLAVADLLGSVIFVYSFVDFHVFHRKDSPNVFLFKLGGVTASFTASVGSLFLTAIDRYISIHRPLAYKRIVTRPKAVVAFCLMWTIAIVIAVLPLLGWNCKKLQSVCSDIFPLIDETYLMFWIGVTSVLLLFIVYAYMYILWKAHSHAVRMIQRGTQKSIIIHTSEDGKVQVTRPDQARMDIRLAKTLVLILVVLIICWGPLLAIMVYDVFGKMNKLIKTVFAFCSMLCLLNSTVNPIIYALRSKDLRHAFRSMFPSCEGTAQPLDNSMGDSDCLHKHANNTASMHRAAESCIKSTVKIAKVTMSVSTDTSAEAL
# CB2 receptor [3] = target: T1, CB2 receptor; parameters: expressed in transfected cells; settings: cited from earlier work
# CB2 receptor [4] = target: T1, CB2 receptor; assay: CB2 assay: displacement of [3H]CP-55,940 from cloned human CB2 receptor preparation (transfected HEK 293 cells); assay type: binding; parameters: expressed in transfected cells; settings: for Ratio CB1/CB2: Table 1; for Ratio CB1/CB2 / Ratio CB17CB2: ratio of Ki values; for selectivity for the CB2 receptor: CB2 over CB1 affinity
# [5] = tested on: mouse model of multiple sclerosis; settings: cited from earlier work
# glioma tumors = settings: cited from earlier work
# CB2 receptor [6] = target: T1, CB2 receptor
# CB1 receptor [7] = target: T2, CB1 receptor; assay: CB1 assay: displacement of [3H]CP-55,940 from rat brain membrane preparation; assay type: binding
# CB1 receptor [8] = target: T3, CB1 receptor (Homo sapiens, UniProt P21554); settings: Gareau et al.; cited from earlier work
# T3 sequence (P21554 whole entry): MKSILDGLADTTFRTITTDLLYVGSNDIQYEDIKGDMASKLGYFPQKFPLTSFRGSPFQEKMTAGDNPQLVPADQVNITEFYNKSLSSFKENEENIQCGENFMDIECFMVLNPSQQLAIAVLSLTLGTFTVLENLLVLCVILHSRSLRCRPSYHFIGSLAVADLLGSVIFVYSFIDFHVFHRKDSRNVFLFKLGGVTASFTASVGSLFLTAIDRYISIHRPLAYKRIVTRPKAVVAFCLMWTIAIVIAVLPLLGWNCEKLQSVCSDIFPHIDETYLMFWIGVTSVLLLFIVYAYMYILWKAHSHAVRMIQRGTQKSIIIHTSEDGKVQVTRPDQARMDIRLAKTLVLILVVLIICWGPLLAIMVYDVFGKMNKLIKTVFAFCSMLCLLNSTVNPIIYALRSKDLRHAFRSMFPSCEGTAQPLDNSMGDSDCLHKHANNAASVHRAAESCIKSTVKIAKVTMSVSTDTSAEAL
# [9] = blocked by CB2 antagonist SR-144528; cited from earlier work
# CB1 receptor [10] = target: T3, CB1 receptor; settings: read-out: Ki CB1 receptor; Hanus et al.; cited from earlier work
# [11] = blocked by CB2 antagonist SR-144528; cited from earlier work; remark: listed apart in the source
# mouse behavioral tetrad = settings: cited from earlier work
# mouse vas deferens = settings: cited from earlier work
# [12] = Table 1, mean ± SEM, values marked ref 8, 19 or 20, read-out: Ki CB1
# [13] = previously reported by the applicants (literature refs), read-out: Ki at CB1 receptor
# [14] = previously reported by the applicants (literature refs), read-out: Ki at CB2 receptor
# [15] = Ki at CB2 receptor, cloned human CB2
# [16] = read-out: Emax relative to CP-55,940
# [17] = rat brain membranes, read-out: Ki at CB1 receptor
# [18] = cloned human CB2, read-out: Ki at CB2 receptor
# [19] = read-out: CB1 (receptor affinity), Table 3, mean ± SEM, 3-(alkoxy-1-naphthoyl)indoles, the same values as Ki in nM
# [20] = Table 3, mean ± SEM, 3-(alkoxy-1-naphthoyl)indoles, the same values as Ki in nM, read-out: CB1 (receptor affinity)
compound,measurement,setting,value
"1-Methoxy-3-(1′,1′-dimethylhexyl)-Δ^8-THC [Compound 6e]",EC50,"CB2 receptor [1]; Table 4, mean ± SEM, human CB2 CHO cells, read-out: EC50 GTPγS binding",4.6 ± 2 nM
same,Emax (% CP-55940),"CB2 receptor [1]; Table 4, mean ± SEM",75.7 ± 8.3 % CP-55940
"CCCCCCC(C)(C)c1ccc2c(c1)OC(C)(C)C1CC=C(CO)CC21 (centres unmarked) [Compound 1, 1-Deoxy-11-hydroxy-3-(1′,1′-dimethylheptyl)-Δ^8-THC]",Ki,CB1 receptor [2]; [12],1.2 ± 0.1 nM
same,Ki,CB1 receptor [2]; [13],1.2 nM
same,Ki,"CB2 receptor [3]; Table 1, mean ± SEM, values marked ref 30, 19 or 20, read-out: Ki CB2",0.03 ± 0.02 nM
same,Ki,CB2 receptor [3]; [14],0.032 nM
same,Ratio CB1/CB2,CB2 receptor [4],40
"CCCCCCC(C)(C)c1ccc2c(c1)OC(C)(C)C1CC=C(C)CC21 (centres unmarked) [Compound 2, 1-Deoxy-3-(1′,1′-dimethylheptyl)-Δ^8-THC]",Ki,CB1 receptor [2]; [12],22.8 ± 7.3 nM
same,Ki,CB1 receptor [2]; [13],23 nM
same,Ki,CB2 receptor [3]; [14],2.9 nM
same,Ratio CB1/CB2,CB2 receptor [4],7.9
"CCCC(C)(C)c1ccc2c(c1)OC(C)(C)C1CC=C(C)CC21 (centres unmarked) [Compound 3, 3-(1′,1′-Dimethylbutyl)-1-deoxy-Δ^8-THC, reference compound]","Emax relative to CP-55,940",CB2 receptor [1],111.5±13.6%
same,Emax (% CP-55940),"CB2 receptor [1]; Table 4, mean ± SEM",111.5 ± 13.6 % CP-55940
same,"efficacy in the [35S]GTPγS assay relative to CP-55,940",CB2 receptor [1],highly efficacious
same,EC50,CB2 receptor [1]; read-out: EC50 in the [35S]GTPγS assay,4 ± 1 nM
same,reduction of spasticity,[5],effective in reducing spasticity
same,Ki,CB1 receptor [2]; [13],677 ± 132 nM
same,Ki,"CB2 receptor [3]; previously reported by the applicants (literature refs), listed as JWH-133, read-out: Ki at CB2 receptor",3.4 ± 1 nM
same,Ratio CB1/CB2,CB2 receptor [4],199
same,in vivo growth of glioma tumors,glioma tumors,inhibits the in vivo growth of glioma tumors
"CCCCCCC(C)(C)c1cc(OC)c2c(c1)OC(C)(C)[C@@H]1CC=C(C)C[C@@H]21 [Compound 4, 3-(1′,1′-Dimethylheptyl)-1-methoxy-Δ^8-THC, reference compound]",Ki,CB2 receptor [6]; read-out: Ki at CB2; Gareau et al.; cited from earlier work,~20 nM
same,Ki,"CB1 receptor [2]; read-out: Ki at CB1 receptor, previously reported by the applicants (literature refs)",924 ± 104 nM
same,Ki,CB1 receptor [7],713 nM
same,Ki,"CB2 receptor [3]; read-out: Ki at CB2 receptor, previously reported by the applicants (literature refs)",65 ± 8 nM
same,Ki,CB2 receptor [4]; [15],57 nM
same,Ratio CB1/CB2,CB2 receptor [4],12 and 14
same,Ki at CB1,CB1 receptor [8],virtually no affinity
"C=C1CCC2C(C1)c1c(OC)cc(C(C)(C)CCCCCC)cc1OC2(C)C (centres unmarked) [Compound 5, 1-methoxy-66 ^9(11)-THC-DMH]",Ki,CB2 receptor [6]; Gareau et al.; read-out: Ki at CB2; cited from earlier work,~20 nM
same,Ki at CB1,CB1 receptor [8],virtually no affinity
CCCCCCC(C)(C)c1cc(OC)c([C@@H]2C=C(CO)[C@@H]3C[C@H]2C3(C)C)c(OC)c1 [HU-308],effect on blood pressure,[9],reduces blood pressure
same,Ki,CB1 receptor [10],> 10000 nM
same,peripheral analgesic activity,[11],shows peripheral analgesic activity
same,activity in the mouse behavioral tetrad,mouse behavioral tetrad,inactive
"CCCCCn1c(C)c(C(=O)c2cccc3ccccc23)c2ccccc21 [JWH-007, 1-pentyl-2-methyl-3-(1-naphthoyl)indole]",Ki,"CB2 receptor [3]; read-out: Ki CB2, Table 2, mean ± SEM, values marked with literature refs",2 ± 2.6 nM
same,Ratio CB17CB2,CB2 receptor [4]; Table 2,3.3
"CCCn1c(C)c(C(=O)c2cccc3ccccc23)c2ccccc21 [JWH-015, 2-Methyl-1-propyl-3-(1-naphthoyl)indole]",Emax,CB2 receptor [1]; read-out: Emax (% CP-55940),65.7 ± 6.4%
same,Emax,CB2 receptor [1]; [16],65.7 ± 6.4%
"CCCn1cc(C(=O)c2ccc(C)c3ccccc23)c2ccccc21 [JWH-120, 1-Propyl-3-(4-methyl-1-naphthoyl)indole]",EC50,CB2 receptor [1],5.1 ± 1.6 nM
same,"efficacy in the [35S]GTPγS assay relative to CP-55,940",CB2 receptor [1],partial agonists
same,Emax,CB2 receptor [1]; read-out: Emax (% CP-55940),78.1 ± 10.7%
same,Emax,CB2 receptor [1]; [16],78.1 ± 10.7%
same,Ki,CB1 receptor [7]; [17],1050 ± 31 nM
same,selectivity for the CB2 receptor,CB2 receptor [4],173 fold
same,Ratio CB17CB2,CB2 receptor [4]; Table 2,173
same,Ki,CB2 receptor [4]; [18],6.1 ± 7 nM
"CCCn1c(C)c(C(=O)c2cccc3cc(OC)ccc23)c2ccccc21 [JWH-151, 2-Methyl-1-propyl-3-(6-methoxy-1-naphthoyl)indole]",EC50,CB2 receptor [1],12 ± 2.9 nM
same,"efficacy in the [35S]GTPγS assay relative to CP-55,940",CB2 receptor [1],highly efficacious
same,Emax,CB2 receptor [1]; read-out: Emax (% CP-55940),108 ± 13%
same,Emax,CB2 receptor [1]; [16],108 ± 13%
same,Ki,CB1 receptor [7],> 10000 nM
same,Ki,CB1 receptor [7]; [19],> 10000 nM
same,selectivity for the CB2 receptor,CB2 receptor [4],> 333 fold
same,Ki,CB2 receptor [4]; [18],30 ± 1 nM
"CCCCc1ccc(C(=O)c2c(C)n(CCC)c3ccccc23)c2ccccc12 [JWH-241, 2-Methyl-1-propyl-3-(4-butyl-1-naphthoyl)indole]",Ki,CB1 receptor [7]; [17],147 ± 20 nM
same,Ratio CB17CB2,CB2 receptor [4]; Table 2,3.0
same,Ki,CB2 receptor [4]; [18],49 ± 7 nM
"CCCCCn1c(C)c(C(=O)c2ccc(CCCC)c3ccccc23)c2ccccc21 [JWH-242, 2-Methyl-1-pentyl-3-(4-butyl-1-naphthoyl)indole]",Ki,CB1 receptor [7]; [17],42 ± 9 nM
same,Ratio CB17CB2,CB2 receptor [4]; Table 2,6.5
same,Ki,CB2 receptor [4]; [18],6.5 ± 0.3 nM
"CCCCCn1cc(C(=O)c2ccc(OCC)c3ccccc23)c2ccccc21 [JWH-258, 1-Pentyl-3-(4-ethoxy-1-naphthoyl)indole]",Ki,CB1 receptor [7]; [17],4.6 ± 0.6 nM
same,Ki,CB2 receptor [4]; [18],10.5 ± 1.3 nM
"CCCn1cc(C(=O)c2ccc(OCC)c3ccccc23)c2ccccc21 [JWH-259, 1-Propyl-3-(4-ethoxy-1-naphthoyl)indole]",Ki,CB1 receptor [7]; [17],220 ± 29 nM
same,Ki,CB2 receptor [4]; [18],74 ± 7 nM
"CCCCCn1c(C)c(C(=O)c2ccc(OCC)c3ccccc23)c2ccccc21 [JWH-260, 2-Methyl-1-pentyl-3-(4-ethoxy-1-naphthoyl)indole]",Ki,CB1 receptor [7]; [17],29 ± 0.4 nM
same,Ki,CB2 receptor [4]; [18],25 ± 1.9 nM
"CCCn1c(C)c(C(=O)c2ccc(OCC)c3ccccc23)c2ccccc21 [JWH-261, 2-Methyl-1-propyl-3-(4-ethoxy-1-naphthoyl)indole]",Ki,CB1 receptor [7]; [17],767 ± 105 nM
same,Ki,CB2 receptor [4]; [18],221 ± 14 nM
"CCCCCn1c(C)c(C(=O)c2cccc3ccc(CC)cc23)c2ccccc21 [JWH-262, 2-Methyl-1-pentyl-3-(7-ethyl-1-naphthoyl)indole]",Ki,"CB1 receptor [7]; Table 2, mean ± SEM, 3-(alkyl-1-naphthoyl)indoles, read-out: Ki CB1",28 ± 3 nM
same,Ki,"CB2 receptor [4]; Table 2, mean ± SEM, 3-(alkyl-1-naphthoyl)indoles, read-out: Ki CB2",5.6 ± 0.7 nM
same,Ratio CB17CB2,CB2 receptor [4]; Table 2,5.0
"CCCn1cc(C(=O)c2c(OC)ccc3ccccc23)c2ccccc21 [JWH-265, 1-Propyl-3-(2-methoxy-1-naphthoyl)indole]",Ki,CB1 receptor [7]; [20],3790 ± 323 nM
same,Ki,CB2 receptor [4]; [18],80 ± 13 nM
same,melting point,,117 to 119 °C
"CCCn1c(C)c(C(=O)c2c(OC)ccc3ccccc23)c2ccccc21 [JWH-266, 2-Methyl-1-propyl-3-(2-methoxy-1-naphthoyl)indole]",Ki,CB1 receptor [7],> 10000 nM
same,Ki,CB1 receptor [7]; [19],> 10000 nM
same,Ki,CB2 receptor [4]; [15],455 ± 55 nM
"CCCCCn1cc(C(=O)c2c(OC)ccc3ccccc23)c2ccccc21 [JWH-267, 1-Pentyl-3-(2-methoxy-1-naphthoyl)indole]",EC50,CB2 receptor [1],4.9 ± 0.8 nM
same,"efficacy in the [35S]GTPγS assay relative to CP-55,940",CB2 receptor [1],partial agonists
same,Emax,CB2 receptor [1]; read-out: Emax (% CP-55940),67.3 ± 2.9%
same,Ki,CB1 receptor [7]; [17],381 ± 16 nM
same,selectivity for the CB2 receptor,CB2 receptor [4],53 fold
same,Ki,CB2 receptor [4]; [15],7.35 nM
same,Ki,"CB2 receptor [4]; Table 3, mean ± SEM, 3-(alkoxy-1-naphthoyl)indoles, the same values as Ki in nM, read-out: CB2 (receptor affinity)",7.2 ± 0.14 nM
"CCCCCn1c(C)c(C(=O)c2c(OC)ccc3ccccc23)c2ccccc21 [JWH-268, 2-Methyl-1-pentyl-3-(2-methoxy-1-naphthoyl)indole]",Ki,CB1 receptor [7]; [20],1380 ± 193 nM
same,Ki,CB2 receptor [4]; [18],40 ± 1 nM
COc1ccc(C(=O)c2c(C)n(CCN3CCOCC3)c3ccccc23)cc1 [pravadoline],contractions of electrically stimulated mouse vas deferens,mouse vas deferens,inhibited contractions
